# Publication PMC12219900, “Mechanistic insights into Bcs1-mediated mitochondrial membrane translocation of the folded Rieske protein” (The EMBO Journal, 2025)
# Experiments:
# [1] = biological target: T1, Bcs1-ATPγS2-Rip1-FeS (Saccharomyces cerevisiae, UniProt P32839); test: cryo-EM structure; assay type: binding; conditions: Rip1-FeS added before 2 mM ATPγS, 2.5 mM MgCl2, pH 7.5, 25 °C; map only (EMD-51562)
# T1 construct: Bcs1 heptamer (His6-FLAG-3C, from yeast) preloaded with E. coli-expressed Rip1-FeS (aa 83-215; TwinStrep tag, 3C-treated; plasmid named Rip1 delta81); with Cytochrome b-c1 complex subunit Rieske, mitochondrial
# T1 sequence (P32839 1-456): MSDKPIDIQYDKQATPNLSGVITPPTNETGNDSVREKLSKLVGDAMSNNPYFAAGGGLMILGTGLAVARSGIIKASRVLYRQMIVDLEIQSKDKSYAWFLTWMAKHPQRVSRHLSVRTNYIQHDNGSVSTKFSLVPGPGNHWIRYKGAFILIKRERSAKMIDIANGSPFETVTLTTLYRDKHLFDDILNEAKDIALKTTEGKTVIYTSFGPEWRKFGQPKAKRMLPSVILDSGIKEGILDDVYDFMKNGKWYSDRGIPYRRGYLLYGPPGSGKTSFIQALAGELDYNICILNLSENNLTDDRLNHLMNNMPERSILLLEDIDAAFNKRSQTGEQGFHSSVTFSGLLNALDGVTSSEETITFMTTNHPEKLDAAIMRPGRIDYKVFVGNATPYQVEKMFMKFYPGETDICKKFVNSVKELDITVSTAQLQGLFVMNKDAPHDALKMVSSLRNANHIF
# T1 sequence (P08067 83-215 partner): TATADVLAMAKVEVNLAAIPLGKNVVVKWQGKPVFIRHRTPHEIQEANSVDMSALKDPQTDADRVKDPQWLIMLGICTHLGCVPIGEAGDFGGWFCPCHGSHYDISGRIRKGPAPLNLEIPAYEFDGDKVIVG
# [2] = biological target: T2, yBcs1 (Bcs1 heptamer) (Saccharomyces cerevisiae, UniProt P32839); test: cryo-EM structure; BN-PAGE shift; assay type: binding; conditions: 2 mM ATPγS, 2.5 mM MgCl2, pH 7.5, 25 °C; all seven AAA sites; two states ATPγS1 (9GSN) and ATPγS2 (9GU9)
# T2 construct: full length 1-456, N-terminal 6xHis-FLAG-3C tag (cleavage not described), expressed in S. cerevisiae W303 bcs1delta, digitonin-solubilised, SEC in GDN, homoheptamer about 700 kDa on BN-PAGE
# T2 sequence (P32839 1-456): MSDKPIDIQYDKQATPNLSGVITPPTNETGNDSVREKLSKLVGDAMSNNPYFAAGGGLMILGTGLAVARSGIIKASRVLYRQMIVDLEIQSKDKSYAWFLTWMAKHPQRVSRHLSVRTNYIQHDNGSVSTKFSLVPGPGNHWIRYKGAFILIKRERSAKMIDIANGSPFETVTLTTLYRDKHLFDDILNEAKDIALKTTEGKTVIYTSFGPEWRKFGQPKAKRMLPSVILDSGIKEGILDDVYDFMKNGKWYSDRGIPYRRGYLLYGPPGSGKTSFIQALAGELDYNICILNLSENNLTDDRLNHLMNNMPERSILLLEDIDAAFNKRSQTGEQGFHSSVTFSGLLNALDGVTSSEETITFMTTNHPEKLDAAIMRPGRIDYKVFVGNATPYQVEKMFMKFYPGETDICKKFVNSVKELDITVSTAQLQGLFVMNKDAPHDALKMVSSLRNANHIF
# [3] = biological target: the molecule itself; test: cryo-EM structure; Bcs1 first incubated with Rip1-FeS in BN-buffer with 2.5 mM MgCl2 for 10 min at 25 °C, then 2 mM ATPγS for 10 min; ATPγS2 state
Molecule,cryo-EM structure [1],cryo-EM structure; BN-PAGE shift [2],stoichiometry N [3]
Nc1ncnc2c1ncn2[C@@H]1O[C@H](COP(=O)(O)OP(=O)(O)OP(O)(O)=S)[C@@H](O)[C@H]1O [ATPγS],with all seven ATP-binding pockets exhibiting ATPγS density,ATPγS density was observed in each of the seven protomers as well,–
"Bcs1 (yeast Bcs1 heptamer) (enzyme, S. cerevisiae, UniProt P32839 1-456, looked up, Bcs1, S. cerevisiae, YDR375C, residues 1-456 (coding region of the gene); N-terminal 6xHis-FLAG-3C tag; no cleavage with 3C protease is described for Bcs1; AAA ATPase that forms heptameric rings; also called yBcs1; bc1 synthesis 1) MSDKPIDIQYDKQATPNLSGVITPPTNETGNDSVREKLSKLVGDAMSNNPYFAAGGGLMILGTGLAVARSGIIKASRVLYRQMIVDLEIQSKDKSYAWFLTWMAKHPQRVSRHLSVRTNYIQHDNGSVSTKFSLVPGPGNHWIRYKGAFILIKRERSAKMIDIANGSPFETVTLTTLYRDKHLFDDILNEAKDIALKTTEGKTVIYTSFGPEWRKFGQPKAKRMLPSVILDSGIKEGILDDVYDFMKNGKWYSDRGIPYRRGYLLYGPPGSGKTSFIQALAGELDYNICILNLSENNLTDDRLNHLMNNMPERSILLLEDIDAAFNKRSQTGEQGFHSSVTFSGLLNALDGVTSSEETITFMTTNHPEKLDAAIMRPGRIDYKVFVGNATPYQVEKMFMKFYPGETDICKKFVNSVKELDITVSTAQLQGLFVMNKDAPHDALKMVSSLRNANHIF",–,–,7
